Among the data in the METLIN SMRT retention time set (Domingo-Almenara et al. 2019) are RP-LC retention time values, retold here.

Structures are written as SMILES.

The data set in a line: gradient 5% acetonitrile 3 min, to 50% in 2 min, to 85% in 15 min, held 3 min, 100 µL/min. The note with it: column: Zorbax Extend-C18 2.1 x 50 mm; eluents: water / acetonitrile, 0.1% formic acid. In a few lines: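 In both positive and negative ionization mode, a quadrupole time-of-flight mass spectrometer coupled to HPLC analyzed pure standards run in mixtures of ~100 molecules. The Zorbax Extend-C18 column (2.1 × 50 mm, 1.8 μm) was operated at 100 μL/min with water and acetonitrile, each containing 0.1% formic acid. The dead volume was 40 μL and the dwell volume 900 μL. Retention time came from adduct peaks that were computationally picked and individually inspected by hand.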
With `COc1cc2c(cc1OC)C1C(C(=O)NCCN3CCOCC3)c3ccccc3C(=O)N1CC2` (centres undefined), the RP-LC retention time is 590 s.

In turn, `CNC(=O)C1CCN(C(=O)Nc2ccc(NC(=O)Nc3ccc(C)cc3C)cc2)CC1` showed an RP-LC retention time of 673 s.

As to `O=C(Cn1c(=O)oc2ccccc21)N1CCC(c2noc(-c3cccnc3)n2)C1` (centres undefined), the RP-LC retention time came to 702 s.

The molecule `O=C(NCCN1CCOCC1)C1CCN(c2ccc3nnc(-c4ccccc4Cl)n3n2)CC1` registered an RP-LC retention time of 596 s.

As for `O=C(NC1CCN(Cc2ccccc2)CC1)c1cc2n(n1)CCCN(Cc1ccccc1)C2=O`, the RP-LC retention time is 640 s.

The molecule `Cc1ccc(NC(=O)CSc2nnc(NC(=O)c3cc(C4CC4)on3)s2)cc1Cl` registered an RP-LC retention time of 926 s.

In turn, `Cc1ccc(S(=O)(=O)N2CC(=O)N(c3ccc(F)cc3)C(C)(C(=O)NC3CCCC3)C2)cc1` (centres undefined) showed an RP-LC retention time of 956 s.

Molecule `CC(C)N1C(=O)c2cccnc2Sc2cc(NC(=O)c3ccco3)ccc21` displayed an RP-LC retention time of 776 s.

Molecule `COC(=O)c1c(C)[nH]c(C(=O)N2CCC(CC(=O)NCCc3c(C)noc3C)CC2)c1C` displayed an RP-LC retention time of 654 s.

As to `Cc1cccc(C)c1N1CC(c2nc3ccccc3n2CC(=O)N2CCOCC2)CC1=O` (centres undefined), the RP-LC retention time was found to be 652 s.

As for `Cc1cnc(C(=O)NC2C[C@H]3CC[C@@H](C2)N3C(=O)C2CCCCCC2)cn1` (some centres undefined), the RP-LC retention time turned out to be 733 s.

`CCCN1CC(Oc2ccc(-c3noc(C4CC4)n3)cc2)C1` came in with an RP-LC retention time of 653 s.

In turn, `COc1ccccc1C1(CNC(=O)NC2CCCCC2)CCOCC1` yielded an RP-LC retention time of 771 s.

In turn, `CCc1ccc(N2C[C@@]34C=C[C@@H](O3)[C@H](C(=O)OC)[C@@H]4C2=O)cc1` returned an RP-LC retention time of 793 s.

With `O=C(NCCCn1nc(-c2ccco2)ccc1=O)c1cc(Cl)ccc1Cl`, the RP-LC retention time stood at 737 s.

Turning to `CCOC(=O)c1c(C)[nH]c(C(=O)N2CCCC(C(=O)NC3CCCC3)C2)c1C` (centres undefined), the RP-LC retention time worked out at 759 s.

Molecule `CC1=C(C(=O)Nc2ccc(C(=O)N3CCN(c4ccc(Cl)cc4)CC3)cc2)SCCO1` registered an RP-LC retention time of 957 s.

`COCCCNc1nccc(-n2nc(C)cc2C)n1`: the RP-LC retention time came out at 631 s.

`CCC(=O)N1CCc2cc(-c3ccc(C(=O)N4CCN(C(=O)c5ccco5)CC4)cc3)ccc21` returned an RP-LC retention time of 764 s.

In the case of `CC(NC(=O)c1ccccc1)c1nc(-c2ccc3nnn(C)c3c2)no1` (centres undefined), the RP-LC retention time was found to be 641 s.

Consider `Cc1cnc(C(=O)N2CCCC2c2nc(CCOCC3CC3)no2)cn1` (centres undefined), for which the RP-LC retention time amounted to 733 s.

`CC(C)(Cc1c[nH]c2ccc(Cl)cc12)NCCOc1ccccc1OCC1CC1` yielded an RP-LC retention time of 953 s.

As for `O=C(NC1CCCCCCC1)C1CCN(S(=O)(=O)c2cc(C(=O)N3CCOCC3)cs2)CC1`, the RP-LC retention time came out at 838 s.

In the case of `COc1ccc(-c2csc(NC(=O)COc3ccc(Cl)c(Cl)c3)n2)cc1`, the RP-LC retention time was 1200 s.

In the case of `Cc1cccc(CN2CCN(C3CCN(C(=O)Nc4ccccc4)CC3)C2=O)c1`, the RP-LC retention time was determined as 851 s.

Molecule `O=C(Cn1cccc1-c1nc(-c2ccc(F)cc2)no1)N1CCc2ccccc21` displayed an RP-LC retention time of 1140 s.

The molecule `COc1cccc(CN2CCC3(CC2)NCCc2c3[nH]c3ccc(OC)cc23)c1` displayed an RP-LC retention time of 589 s.

In the case of `COc1cccc(S(=O)(=O)N2CCCN(S(=O)(=O)c3ccccc3)CCC(=O)NCC2)c1`, the RP-LC retention time was 805 s.

Molecule `CC(=O)N1CCN(c2ccc(NC(=O)c3ccccc3Br)cc2)CC1` registered an RP-LC retention time of 646 s.

In the case of `CC(C)CNC(=O)CCC(=O)N1c2ccccc2NC2=C(C(=O)CC(C)(C)C2)C1c1ccco1` (centres undefined), the RP-LC retention time worked out at 743 s.

As for `CNC1(C)[C@H]2CC[C@H](C2)C1(C)C` (some centres undefined), the RP-LC retention time turned out to be 606 s.

For the molecule `CC(=O)N1CCC(n2c(C)nc(C(=O)N3CCCCC3)c2C)CC1`, the RP-LC retention time is 559 s.

On to `Cn1cc(-c2cc3n(n2)CCCN3C(=O)CCC(=O)NCc2ccco2)c2ccccc21`, for which the RP-LC retention time came to 754 s.

The molecule `CC(C)OCCCNC(=O)c1ccc2c(c1)nc1n2CCCCC1` showed an RP-LC retention time of 606 s.

The molecule `CC(C)CN1CCN(C(=O)C2CC(=O)N(CCc3ccccc3)C2)CC1` (centres undefined) showed an RP-LC retention time of 580 s.

For `COCCNS(=O)(=O)c1ccc(-c2ccc(C)cc2)cc1`, the RP-LC retention time was found to be 890 s.

`COc1cc(NC(=O)N2CCC3(CC2)N=C(c2cccc(F)c2)C(=O)N3)cc(OC)c1` yielded an RP-LC retention time of 822 s.

`Cc1sc(-n2cccc2)nc1C(=O)N1CCN(c2ccccn2)CC1` registered an RP-LC retention time of 623 s.

Turning to `O=C(NCc1ccncc1)c1cc2cc(Cl)ccc2[nH]1`, the RP-LC retention time is 618 s.

Molecule `CC(C)Oc1ccc(CNC(=O)c2nnc(-c3ccc(S(=O)(=O)N4CCCC4)cc3)o2)cc1` showed an RP-LC retention time of 1000 s.

`CCOc1ccc(-n2cc(C(=O)OC(C)C)c3ccccc3c2=O)cc1`: the RP-LC retention time was found to be 1220 s.

For `O=C(NCCc1c[nH]c2ccccc12)c1ccc(N2CCCC2)c(S(=O)(=O)N2CCCC2)c1`, the RP-LC retention time came to 979 s.

On to `COc1ccc(N2CCN(CCCNC(=O)NC3COc4ccc(OC)cc4C3)CC2)cc1` (centres undefined), for which the RP-LC retention time was 687 s.

Take `CCc1nn2c(CNS(=O)(=O)c3ccccc3Cl)c(-c3ccccc3)nc2s1`: the RP-LC retention time was 1000 s.

`CCOC(=O)N1CCC2(CC1)N=C(c1ccc(OCC)cc1)CC(c1cc(Cl)ccc1O)N2` (centres undefined) came in with an RP-LC retention time of 726 s.

With `COC(=O)c1ccc2c(=O)n(Cc3ccc(OC)cc3)c(N3CCC(C(N)=O)CC3)nc2c1`, the RP-LC retention time stood at 744 s.

On to `COc1cccc(-c2c(C(=O)O)nnn2-c2ccc(OC)c(OC)c2)c1`, for which the RP-LC retention time was 715 s.

Take `CCOc1ccc(C2Cn3nnc(-c4nc(-c5ccccc5F)no4)c3CO2)cc1` (centres undefined): the RP-LC retention time turned out to be 1100 s.

Regarding `CN(C)c1nc2ncn3c(=O)n(CC(=O)NCc4ccc(F)cc4)nc3c2s1`, the RP-LC retention time came to 675 s.

Molecule `Cc1ccccc1-c1nc(-c2ccc3c(c2)nc(C)c(=O)n3C)no1` displayed an RP-LC retention time of 1120 s.

On to `Nc1nc(N2CCOCC2)ncc1C(=O)NCc1ccccc1`, for which the RP-LC retention time is 609 s.

As for `COc1ccc(Cn2cccc(S(=O)(=O)N3CCCC3)c2=O)cc1F`, the RP-LC retention time is 843 s.

Molecule `Cc1ccc(C2CCCN2C(=O)c2cc(-c3ccco3)on2)cc1` (centres undefined) had an RP-LC retention time of 1020 s.

With `O=C(c1ccc(F)cc1F)N1CCN(c2cc(-c3cccs3)[nH]n2)CC1`, the RP-LC retention time worked out at 784 s.

As to `CC1(C)CC(=O)c2cn(-c3ccccc3)c(=O)c(C(=O)Nc3ccc4c(c3)OCCO4)c2C1`, the RP-LC retention time was 976 s.

The molecule `CCOc1ccccc1C(=O)NCCc1csc(-c2cccnc2)n1` showed an RP-LC retention time of 668 s.

`COC(=O)Cn1c(C2CC(=O)N(c3cccc(OC)c3)C2)nc2ccccc21` (centres undefined) came in with an RP-LC retention time of 718 s.

`CC1=C(c2ccc(C)c(C)c2)S(=O)(=O)N=C1N1CCC(C(=O)NCCN2CCOCC2)CC1` displayed an RP-LC retention time of 648 s.

As for `COc1ccc(-c2ccnc3nc(Cc4ccc(F)cc4)nn23)cc1OC`, the RP-LC retention time turned out to be 851 s.

The molecule `COc1ccc(NC(=O)C2CCCN(c3ncnc4c3nc3n4CCCCC3)C2)c(OC)c1` (centres undefined) had an RP-LC retention time of 777 s.

`COc1ccc(-c2cn3c(CC(=O)Nc4cc(Cl)ccc4OC)csc3n2)cc1` had an RP-LC retention time of 847 s.

Take `O=C(c1ccc(=O)n(CCN2CCOCC2)c1)N1CCC(Cc2ccccc2)CC1`: the RP-LC retention time came out at 637 s.

`CCCCN(C)C(=O)c1sc(Nc2ccccn2)nc1C` showed an RP-LC retention time of 777 s.

In the case of `O=C(c1cccs1)N1CCCN(c2ccc(=O)n(-c3ccccc3)n2)CC1`, the RP-LC retention time is 700 s.

`CC1(C)Oc2ccc(C#N)cc2[C@@H](OC2=CC(=O)CC2)[C@@H]1O` gave an RP-LC retention time of 746 s.

`Cc1cc2nn(CC(=O)Nc3cccc(C)c3C)c(=O)n2c(-c2ccc(F)cc2)n1` showed an RP-LC retention time of 849 s.

`COC(=O)c1ccc(-c2nc3cnccn3c2Nc2cccc(Cl)c2C)cc1` had an RP-LC retention time of 988 s.

Consider `O=C(NCCC1=CCCCC1)C(=O)NCc1ccsc1`, for which the RP-LC retention time came to 894 s.

In turn, `CCN1C(=O)COc2ccc(-c3noc(-c4cccc(Cl)c4)n3)cc21` registered an RP-LC retention time of 1250 s.

Molecule `Cn1nc(-c2nc(C3CC3)no2)c2c1CCN(C(=O)c1ccncc1)C2` came in with an RP-LC retention time of 628 s.

As to `Cc1ccc(Cl)cc1NC(=O)N1CCc2nc[nH]c2C1`, the RP-LC retention time amounted to 612 s.

Consider `O=C(NCC(O)c1ccsc1)c1ccc2c(c1)OCO2` (centres undefined), for which the RP-LC retention time is 652 s.

The molecule `COc1cccc(-c2cc(C(N)=O)c3ccccc3n2)c1` came in with an RP-LC retention time of 760 s.

Regarding `COc1ccc(C2C(=O)N(C3CCC(C)CC3)CC(=O)N2Cc2cccs2)cc1OC` (centres undefined), the RP-LC retention time turned out to be 961 s.

With `Cn1c(N2CCN(C(=O)c3ccc(F)c(Cl)c3)CC2)cc(=O)n(C)c1=O`, the RP-LC retention time came out at 686 s.

The molecule `CCCNC(=O)C1CCCN(c2ccc(SCC(=O)Nc3ccc(C)cc3C)nn2)C1` (centres undefined) registered an RP-LC retention time of 733 s.

With `CCN1CCN(C(=O)C2CCCN(S(=O)(=O)c3ccc(OC)c(C)c3)C2)CC1` (centres undefined), the RP-LC retention time worked out at 636 s.

`O=C(c1cccs1)N(Cc1ccco1)c1nc2c(F)cc(F)cc2s1` gave an RP-LC retention time of 1160 s.

Take `c1ccc(-c2nc(-c3ccc4c(c3)nnn4CCN3CCCCC3)no2)nc1`: the RP-LC retention time stood at 602 s.
